Reference: patent US20040068005A1, “Pharmaceutical combinations” (priority 2000, published 2004)

Tests used:
Format in all cases: in vivo, New Zealand white rabbits
[1] = test system: streptozotocin diabetic rabbits; test: Femoral nerve conduction velocity, streptozotocin diabetes; conditions: for Nerve conduction velocity: femoral “C” fibers, streptozotocin diabetic rabbit; for nerve conduction in “C” fibres: streptozotocin-diabetes model, drug alone, nitroglycerin 12-h patch on vs 12-h patch off over three days
Experimental: (§1) The experiments are carried out with adult, male New Zealand white rabbits, weighing 3.0-3.5 kg, housed as described in Am. J. Physiol 1994, Heart Circ. Physiol, 35: H2033-H2041 and J. Moll Cell.. Cardiol. 1997, 29: 1977-1983.
These series of experiments were carried out to verify/exclude sensory neuropathy. Left saphenous nerve conduction velocity was determined as described in Eur J. Pharmacol 1999, 386:83-88.
Streptozotocin (40 mg/kg i.v.) produced a decrease in nerve conduction velocity in femoral “A” and “C” fibres, respectively, as determined 8 weeks after streptozotocin injection. […] The combination of any of these drugs with nitroglycerin yielded an improvement of conduction velocity in streptozotocin-diabetic aminals similar to that seen with nitroglycerin alone.

normal conscious rabbits [2] = test: Hyperinsulinaemic euglycaemic glucose clamping (insulin sensitivity), normal rabbits; conditions: for Glucose infusion rate: normal rabbit; for M values of hyperinsulinaemic and euglycaemic glucose clamping: normal rabbits
Experimental: as §1
(§2) To estimate insulin sensitivity and/or insulin resistance, hyperinsulinaemic (100 eU/ml) euglycaemic (5.5 mM/l) glucose clamping was used. The glucose clamping values (M) were established as values of glucose infusion rates expressed in mg/kg/min to maintain blood glucose level at 5.5 mM/l.

[3] = test system: hypercholesterolaemic, insulin resistant conscious rabbits; test: Hyperinsulinaemic euglycaemic glucose clamping (insulin sensitivity), hypercholesterolaemic rabbits; conditions: for Glucose infusion rate / M values of hyperinsulinaemic and euglycaemic glucose clamping / synergism (increased effectivity) on glycaemic control: hypercholesterolaemic; for Glucose infusion rate: insulin resistant rabbit; for synergism (increased effectivity) on glycaemic control: drug combined with nitroglycerin; for Insulin sensitivity: percent of means, control = 100
Experimental: (§3) The experiments are carried out with adult, male New Zealand white rabbits, weighing 3.0-3.5 kg, housed as described in Am. […] Physiol, 35: H2033-H2041 and J. Moll Cell.. Cardiol.
as §2

[4] = test system: hypercholesterolaemic, insulin resistant conscious rabbits; test: Ventricular pacing-induced myocardial ischaemia (ST-segment elevation), hypercholesterolaemic rabbits; conditions: for ST-segment elevation / intracavitary ST-segment elevation / ischaemic changes produced by VOP: hypercholesterolaemic; for ST-segment elevation: insulin resistant rabbit; for intracavitary ST-segment elevation / ischaemic changes produced by VOP: insulin resistant rabbits, drug alone
Experimental: as §3
(§4) The induction of global myocardial ischaemia was based on a method described as above.

normal conscious rabbits [5] = test: Ventricular pacing-induced myocardial ischaemia (ST-segment elevation), normal rabbits; conditions: for intracavitary ST-segment elevation / anti-ischaemic effect of combination with nitroglycerin: normal conscious rabbits; for intracavitary ST-segment elevation: drug alone; for anti-ischaemic effect of combination with nitroglycerin: nitroglycerin combined with the drug; for ST-segment elevation: normal rabbit
Experimental: as §3, §4

[6] = test system: hypercholesterolaemic, insulin resistant rabbits; test: Femoral nerve conduction velocity, hyperlipidaemia-induced insulin resistance; conditions: femoral “C” fibers, hypercholesterolaemic, insulin resistant rabbit
Experimental: as §3
These series of experiments were carried out to verify/exclude sensory neuropathy.

[7] = placebo patch, troglitazon 70 mg/kg p.os, metformin 5 mg/kg i.v., glibenclamide 1 mg/kg i.v., idazoxan 2 mg/kg i.v., healthy untreated 6.2
[8] = with active patch (nitroglycerin 0.07 mg/kg/h), alone (Control) or with the drug
[9] = placebo patch, troglitazon 70 mg/kg p.os, metformin 5 mg/kg i.v., glibenclamide 1 mg/kg i.v., idazoxan 2 mg/kg i.v., mean
[10] = with active patch (nitroglycerin 0.07 mg/kg/h), alone (Control) or together with the drug, troglitazon 70 mg/kg p.os, metformin 5 mg/kg i.v., glibenclamide 1 mg/kg i.v., idazoxan 2 mg/kg i.v.
[11] = drug alone, troglitazon 70 mg/kg/day p. os over 3 days, metformin 5 mg/kg/day i.v. over 3 days, glibenclamide 1 mg/kg i.v., idazoxan 2 mg/kg i.v.
[12] = placebo patch, troglitazon 70 mg/kg p.os, metformin 5 mg/kg i.v., glibenclamide 1 mg/kg i.v., idazoxan 2 mg/kg i.v.
[13] = with active patch (nitroglycerin 0.07 mg/kg/h), alone (Control) or together with the drug, same doses
[14] = insulin resistant rabbits, in the presence of nitroglycerin and the drug, compared to the placebo patch group
[15] = nitroglycerin patch 0.07 mg/kg/h, metformin 5 mg/kg i.v., troglitazon 70 mg/kg p.os
[16] = metformin 100 mg/kg p.os, ISMN controlled release 5 mg/kg p.os

Row | SMILES | Nerve conduction velocity [1, 7] [dm/s] | Nerve conduction velocity [1, 8] [dm/s] | nerve conduction in “C” fibres [1] | Glucose infusion rate (normal conscious rabbits [2]; [9]) [mg/kg/min] | Glucose infusion rate (normal conscious rabbits [2]; [10]) [mg/kg/min] | M values of hyperinsulinaemic and euglycaemic glucose clamping (normal conscious rabbits [2]; [11]) | Glucose infusion rate [3, 12] [mg/kg/min] | Glucose infusion rate [3, 13] [mg/kg/min] | M values of hyperinsulinaemic and euglycaemic glucose clamping [3, 14] | synergism (increased effectivity) on glycaemic control ([3]; insulin resistant rabbits) | ST-segment elevation ([4]; placebo patch, same doses) [mV] | ST-segment elevation [4, 8] [mV] | intracavitary ST-segment elevation / ischaemic changes produced by VOP [4] | intracavitary ST-segment elevation (normal conscious rabbits [5]) | anti-ischaemic effect of combination with nitroglycerin (normal conscious rabbits [5]) | ST-segment elevation (normal conscious rabbits [5]; [12]) [mV] | ST-segment elevation (normal conscious rabbits [5]; [8]) [mV] | Insulin sensitivity [3, 15] [%] | also measured
1 | COc1ccc(Cl)cc1C(=O)NCCc1ccc(S(=O)(=O)NC(=O)NC2CCCCC2)cc1 [Glibenclamide, glibenclamide] | 2.9 ± 0.24 | 3.6 ± 0.2 | Neither troglitazon,nor glibenclamide, idazoxan or metformin produced any effect | 14.667 | 16.500 | without effect | 8.833 | 12.333 | significantly increased | synergism | 1.9 ± 0.40 | 1.5 ± 0.13 | without effect | without effect | anti-ischaemic effect similar to that produced by nitroglyc erin alone | 1.4 ± 0.08 | 0.8 ± 0.08 | – | –
2 | c1ccc2c(c1)OCC(C1=NCCN1)O2 (centres unmarked) [Idazoxan, idazoxane] | 2.8 ± 0.26 | 3.4 ± 0.2 | Neither troglitazon,nor glibenclamide, idazoxan or metformin produced any effect | 14.667 | 16.000 | without effect | 8.500 | 12.833 | significantly increased | synergism | 2.3 ± 0.50 | 1.8 ± 0.16 | aggravated ischaemic changes | – | anti-ischaemic effect similar to that produced by nitroglyc erin alone | 1.4 ± 0.05 | 0.8 ± 0.09 | – | ventricular extrasystoles on VOP ([4]; insulin resistant animals, idazoxan 2 mg/kg i.v.): VOP induced ventricular extrasystolesin the insulin resistant animals
3 | Cc1c(C)c2c(c(C)c1O)CCC(C)(COc1ccc(CC3SC(=O)NC3=O)cc1)O2 (centres unmarked) [Troglitazon, troglitazone] | 3.2 ± 0.3 | 3.6 ± 0.2 | – | 17.167 | 19.333 | – | 11.000 | 14.667 | – | – | 1.6 ± 0.12 | 1.08 ± 0.10 | – | – | – | 1.1 ± 0.08 | 0.7 ± 0.09 | 122.2 | Nerve conduction velocity ([6]; placebo patch, troglitazon 70 mg/kg p.os): 4.6 ± 0.4 dm/s; Nerve conduction velocity ([6]; with active patch (nitroglycerin 0.07 mg/kg/h), alone (Control) or with troglitazon 70 mg/kg p.os): 5.9 ± 0.2 dm/s
4 | CN(C)C(=N)N=C(N)N [Metformin, metformine] | 3.1 ± 0.2 | 3.6 ± 0.2 | Neither troglitazon,nor glibenclamide, idazoxan or metformin produced any effect | 15.667 | 19.833 | without effect | 10.833 | 14.500 | significantly increased | – | 2.1 ± 0.13 | 1.5 ± 0.08 | without effect | without effect | anti-ischaemic effect similar to that produced by nitroglyc erin alone | 1.4 ± 0.08 | 0.8 ± 0.10 | 120.4 | Glucose infusion rate (normal conscious rabbits [2]; [16]): 14.80 ± 0.0800 mg/kg/min; M values of hyperinsulinaemic and euglycaemic glucose clamping (normal conscious rabbits [2]; drug alone vs control, isosorbide-5-mononitrate 1 mg/kg/day (Olicard 40), metformin 100 mg/kg/day p.os over 3 days): without any effect; M values of hyperinsulinaemic and euglycaemic glucose clamping (normal conscious rabbits [2]; in the presence of transdermal nitroglycerin combined with the drug): significantly increased; M values of hyperinsulinaemic and euglycaemic glucose clamping (normal conscious rabbits [2]; metformin 100 mg/kg/day p.os in the presence of ISML (ISMN)): significant increase; Glucose infusion rate [3, 16]: 11.70 ± 1.0300 mg/kg/min; M values of hyperinsulinaemic and euglycaemic glucose clamping ([3]; insulin resistant rabbits vs control, ISMN 5 mg/kg/day (Olicard 40), metformin 100 mg/kg/day p.os over 3 days): significant increase; Insulin sensitivity ([3]; ISMN controlled release 5 mg/kg p.os, metformin 100 mg/kg p.os): 120.6%
